± gives the expanded uncertainty stated by the source.
Experiment: xn = mol fraction of the nth substance listed
Details: for mass density: 100 kPa, Liquid, Vibrating tube method; for surface tension liquid-gas: Maximal bubble pressure

CCn1cc[n+](CCOC)c1.O=S(=O)([O-])C(F)(F)F + CCO
Details | mass density, 303.15 K [kg/m3] | mass density, 308.15 K [kg/m3] | mass density, 313.15 K [kg/m3] | mass density, 318.15 K [kg/m3] | surface tension liquid-gas, 308.15 K [mN/m] | surface tension liquid-gas, 313.15 K [mN/m] | surface tension liquid-gas, 318.15 K [mN/m]
x1 = 0.0996 | 952.028 ± 3.1 | 947.665 ± 3.1 | 943.285 ± 3.1 | 938.889 ± 3.1 | 21.2 ± 1.5 | 20.8 ± 1.5 | 20.3 ± 1.5
x1 = 0.1999 | 1058.92 ± 2.2 | 1054.56 ± 2.2 | 1050.2 ± 2.2 | 1045.85 ± 2.2 | 22.3 ± 1.5 | 21.8 ± 1.5 | 21.4 ± 1.5
x1 = 0.2996 | 1131.76 ± 1.8 | 1127.43 ± 1.8 | 1123.1 ± 1.8 | 1118.78 ± 1.8 | 23.9 ± 1.5 | 23.5 ± 1.5 | 23 ± 1.5
x1 = 0.3984 | 1183.97 ± 1.6 | 1179.66 ± 1.6 | 1175.37 ± 1.6 | 1171.08 ± 1.6 | 25.4 ± 1.5 | 25 ± 1.5 | 24.6 ± 1.5
x1 = 0.4991 | 1224.66 ± 1.5 | 1220.38 ± 1.5 | 1216.11 ± 1.5 | 1211.87 ± 1.5 | 27.1 ± 1.5 | 26.7 ± 1.5 | 26.3 ± 1.5
x1 = 0.6026 | 1257.38 ± 1.4 | 1253.12 ± 1.4 | 1248.89 ± 1.4 | 1244.66 ± 1.4 | 28.9 ± 1.5 | 28.6 ± 1.5 | 28.2 ± 1.5
x1 = 0.6991 | 1282.19 ± 1.4 | 1277.95 ± 1.4 | 1273.73 ± 1.4 | 1269.52 ± 1.4 | 30.3 ± 1.5 | 30 ± 1.5 | 29.6 ± 1.5
x1 = 0.797 | 1302.98 ± 1.4 | 1298.75 ± 1.4 | 1294.54 ± 1.4 | 1290.35 ± 1.4 | 32 ± 1.5 | 31.8 ± 1.5 | 31.5 ± 1.5
x1 = 0.8995 | 1321.08 ± 1.4 | 1316.86 ± 1.4 | 1312.66 ± 1.4 | 1308.47 ± 1.4 | 33.8 ± 1.5 | 33.5 ± 1.5 | 33.2 ± 1.5
x1 = 1 | 1336.17 ± 1.4 | 1331.96 ± 1.4 | 1327.77 ± 1.4 | 1323.6 ± 1.4 | 35.3 ± 1.5 | 35.1 ± 1.5 | 34.9 ± 1.5

— the NIST ThermoML archive (doi:10.1016/j.tca.2019.178383)
